ChEMBL document CHEMBL5143685, “Valorisation of the diterpene podocarpic acid - Antibiotic and antibiotic enhancing activities of polyamine conjugates” (Bioorg Med Chem, 2022)

Tests used:
Klebsiella pneumoniae = assay: Antibacterial activity against Klebsiella pneumoniae ATCC 700603 assessed as inhibition of bacterial growth measured after 18 hrs by resazurin dye based analysis; type: functional
Escherichia coli [1] = assay: Antibacterial activity against Escherichia coli ATCC 25922 assessed as inhibition of bacterial growth measured after 18 hrs by resazurin dye based analysis; type: functional
Pseudomonas aeruginosa [2] = assay: Antibacterial activity against Pseudomonas aeruginosa ATCC 27853 assessed as inhibition of bacterial growth measured after 18 hrs by resazurin dye based analysis; type: functional
Staphylococcus aureus = assay: Antibacterial activity against methicillin-resistant Staphylococcus aureus ATCC 43300 assessed as inhibition of bacterial growth measured after 18 hrs by resazurin dye based analysis; type: functional
Acinetobacter baumannii = assay: Antibacterial activity against Acinetobacter baumannii ATCC 19606 assessed as inhibition of bacterial growth measured after 18 hrs by resazurin dye based analysis; type: functional
Candida albicans = assay: Antifungal activity against Candida albicans ATCC 90028 assessed as fungal growth inhibition incubated for 36 hrs by resazurin dye based analysis; type: functional
Cryptococcus neoformans = assay: Antifungal activity against Cryptococcus neoformans ATCC 208821 assessed as fungal growth inhibition incubated for 36 hrs by resazurin dye based analysis; type: functional
[3] = Cytotoxicity against HEK293 cells assessed as cell growth inhibition measured after 20 hrs by resazurin dye based assay; type: toxicity; conditions: human
Pseudomonas aeruginosa [4] = assay: Antibiotic adjuvant activity against Pseudomonas aeruginosa ATCC 27853 assessed as doxycycline MIC measured after 18 hrs in presence of doxycycline; type: functional
Escherichia coli [5] = assay: Antibiotic adjuvant activity against Escherichia coli ATCC 25922 assessed as erythromycin MIC measured after 18 hrs in presence of erythromycin; type: functional
Saccharomyces cerevisiae [6] = assay: Antifungal activity against Saccharomyces cerevisiae BY4743 assessed as fungal growth inhibition incubated for 24 hrs by plate reader method; type: functional, organism-based; conditions: BY4743, 24 h
Saccharomyces cerevisiae [7] = assay: Antifungal activity against Saccharomyces cerevisiae YJM789 assessed as fungal growth inhibition incubated for 24 hrs by plate reader method; type: functional, organism-based; conditions: YJM789, 24 h
Saccharomyces cerevisiae [8] = assay: Antifungal activity against Saccharomyces cerevisiae PA3-10-3 variant assessed as fungal growth inhibition incubated for 24 hrs by plate reader method; type: functional, organism-based
[9] = Selectivity index, ratio of IC50 for HEK293 to MIC for methicillin-resistant Staphylococcus aureus ATCC 43300; type: toxicity; conditions: human, HEK293 cells; read-out: Selectivity Index

| Structure (SMILES) | MIC (Klebsiella pneumoniae) | MIC (Escherichia coli [1]) | MIC (Pseudomonas aeruginosa [2]) | MIC (Staphylococcus aureus) | MIC (Acinetobacter baumannii) | MIC (Candida albicans) | MIC (Cryptococcus neoformans) | IC50 at 20 h [3] | MIC (Pseudomonas aeruginosa [4]) | MIC (Escherichia coli [5]) | IC50 (Saccharomyces cerevisiae [6]) | IC50 (Saccharomyces cerevisiae [7]) | IC50 (Saccharomyces cerevisiae [8]) | selectivity ratio [9] |
| --- | --- | --- | --- | --- | --- | --- | --- | --- | --- | --- | --- | --- | --- | --- |
| C[C@]1(C(=O)NCCCNCCCCCCCCCCN)CCC[C@]2(C)c3cc(OC(=O)NCCCNCCCCCCCCCCN)ccc3CC[C@@H]12.O=C(O)C(F)(F)F.O=C(O)C(F)(F)F.O=C(O)C(F)(F)F.O=C(O)C(F)(F)F | > 26.7 µM | > 26.7 µM | > 26.7 µM | 26.7 µM | > 26.7 µM | > 26.7 µM | > 26.7 µM | 20.6 µM | 50 µM | 3.12 µM |  |  |  |  |
| C[C@]1(C(=O)NCCCNCCCCCCCN)CCC[C@]2(C)c3cc(OC(=O)NCCCNCCCCCCCN)ccc3CC[C@@H]12.O=C(O)C(F)(F)F.O=C(O)C(F)(F)F.O=C(O)C(F)(F)F.O=C(O)C(F)(F)F | > 29.7 µM | > 29.7 µM | > 29.7 µM | > 28.7 µM | > 29.7 µM | > 29.7 µM | > 29.7 µM | > 28.7 µM |  | 50 µM |  |  |  |  |
| C[C@]1(C(=O)NCCCNCCCCN)CCC[C@]2(C)c3cc(OC(=O)NCCCNCCCCN)ccc3CC[C@@H]12.O=C(O)C(F)(F)F.O=C(O)C(F)(F)F.O=C(O)C(F)(F)F.O=C(O)C(F)(F)F | > 31.1 µM | > 31.1 µM | > 31.1 µM | > 31.1 µM | > 31.1 µM | > 31.1 µM | > 31.1 µM | > 31.1 µM | 25 µM | 25 µM |  |  |  |  |
| C[C@]1(C(=O)O)CCC[C@]2(C)c3cc(OC(=O)CCCNCCCCCCCCCCNCCCNC(=O)Oc4ccc5c(c4)[C@@]4(C)CCC[C@](C)(C(=O)O)[C@@H]4CC5)ccc3CC[C@@H]12.O=C(O)C(F)(F)F.O=C(O)C(F)(F)F | > 28.7 µM | > 28.7 µM | > 28.7 µM | > 28.7 µM | > 28.7 µM | > 28.7 µM | 7.17 µM | > 28.7 µM |  |  | 3.59 µM | 14.3 µM | > 25 µM |  |
| C[C@]1(C(=O)NCCCNCCCCCCN)CCC[C@]2(C)c3cc(OC(=O)NCCCNCCCCCCN)ccc3CC[C@@H]12.O=C(O)C(F)(F)F.O=C(O)C(F)(F)F.O=C(O)C(F)(F)F.O=C(O)C(F)(F)F | > 29.5 µM | > 29.5 µM | > 29.5 µM | > 29.5 µM | > 29.5 µM | > 29.5 µM | > 29.5 µM | > 29.5 µM |  | 50 µM |  |  |  |  |
| C[C@]1(C(=O)NCCCNCCCCCCCCCCCCN)CCC[C@]2(C)c3cc(OC(=O)NCCCNCCCCCCCCCCCCN)ccc3CC[C@@H]12.O=C(O)C(F)(F)F.O=C(O)C(F)(F)F.O=C(O)C(F)(F)F.O=C(O)C(F)(F)F | 12.8 µM | ≤ 0.2 µM | > 25.5 µM | ≤ 0.2 µM | 6.38 µM | 25.5 µM | > 25.5 µM | 0.33 µM | 50 µM |  |  |  |  |  |
| C[C@@]12CCC[C@](C)(C(=O)O)[C@H]1CCc1ccc(OC(=O)CCCNCCCCCCNCCCNC(=O)Oc3ccc4c(c3)[C@@]3(C)CCC[C@](C)(C(=O)O)[C@@H]3CC4)cc12.O=C(O)C(F)(F)F.O=C(O)C(F)(F)F | > 30.2 µM | > 30.2 µM | > 30.2 µM | 30.2 µM | > 30.2 µM | 30.2 µM | 30.2 µM | > 30.2 µM |  |  | 3.59 µM | 14.3 µM |  |  |
| CCCCCNC(=O)[C@@]1(C)CCC[C@]2(C)c3cc(OC(=O)CCCNCCCCNCCCNC(=O)Oc4ccc5c(c4)[C@@]4(C)CCC[C@](C)(C(=O)NCCCCC)[C@@H]4CC5)ccc3CC[C@@H]12.O=C(O)C(F)(F)F.O=C(O)C(F)(F)F | > 27.4 µM | > 27.4 µM | > 27.4 µM | ≤ 0.21 µM | > 27.4 µM | 13.7 µM | > 27.4 µM | > 27.4 µM |  |  |  |  |  |  |
| C[C@]1(C(=O)NCCCNCCCCCCCCCCCCN)CCC[C@]2(C)c3cc(O)ccc3CC[C@@H]12.O=C(O)C(F)(F)F.O=C(O)C(F)(F)F | > 43.1 µM | 43.1 µM | > 43.1 µM | 5.4 µM | 43.1 µM | 43.1 µM | 43.1 µM | 26.2 µM |  |  |  |  |  | 4.9 |
| COC(=O)[C@@]1(C)CCC[C@]2(C)c3cc(OC(=O)CCCNCCCCCCCNCCCNC(=O)Oc4ccc5c(c4)[C@@]4(C)CCC[C@](C)(C(=O)OC)[C@@H]4CC5)ccc3CC[C@@H]12.O=C(O)C(F)(F)F.O=C(O)C(F)(F)F | > 29.1 µM | > 29.1 µM | > 29.1 µM | ≤ 0.23 µM | > 29.1 µM | ≤ 0.23 µM | 7.26 µM | > 29.1 µM |  |  |  |  |  |  |
| COC(=O)[C@@]1(C)CCC[C@]2(C)c3cc(OC(=O)CCCNCCCCCCCCNCCCNC(=O)Oc4ccc5c(c4)[C@@]4(C)CCC[C@](C)(C(=O)OC)[C@@H]4CC5)ccc3CC[C@@H]12.O=C(O)C(F)(F)F.O=C(O)C(F)(F)F | > 28.7 µM | > 28.7 µM | > 28.7 µM | ≤ 0.22 µM | > 28.7 µM | ≤ 0.22 µM | 0.45 µM | > 28.7 µM |  |  |  |  |  |  |
| C[C@]1(C(=O)O)CCC[C@]2(C)c3cc(OC(=O)NCCCNCCCCCCCCN)ccc3CC[C@@H]12.O=C(O)C(F)(F)F.O=C(O)C(F)(F)F | > 43.8 µM | > 43.8 µM | > 43.8 µM | > 43.8 µM | > 43.8 µM | > 43.8 µM | > 43.8 µM | > 43.8 µM |  |  |  |  |  |  |
| CCCCCNC(=O)[C@@]1(C)CCC[C@]2(C)c3cc(OC(=O)CCCNCCCCCCCCCCNCCCNC(=O)Oc4ccc5c(c4)[C@@]4(C)CCC[C@](C)(C(=O)NCCCCC)[C@@H]4CC5)ccc3CC[C@@H]12.O=C(O)C(F)(F)F.O=C(O)C(F)(F)F | > 25.5 µM | > 25.5 µM | > 25.5 µM | ≤ 0.2 µM | > 25.5 µM | ≤ 0.2 µM | 3.19 µM | > 25.5 µM |  |  |  |  |  |  |
| C[C@]1(C(=O)NCCCNCCCCNCCCNC(=O)[C@@]2(C)CCC[C@]3(C)c4cc(O)ccc4CC[C@@H]23)CCC[C@]2(C)c3cc(O)ccc3CC[C@@H]12.O=C(O)C(F)(F)F.O=C(O)C(F)(F)F | > 33.9 µM | > 33.9 µM | > 33.9 µM | ≤ 0.26 µM | > 33.9 µM | > 33.9 µM | 17 µM | > 33.9 µM |  | 26.5 µM |  |  |  | > 130 |
| COC(=O)[C@@]1(C)CCC[C@]2(C)c3cc(OC(=O)CCCNCCCCNCCCNC(=O)Oc4ccc5c(c4)[C@@]4(C)CCC[C@](C)(C(=O)OC)[C@@H]4CC5)ccc3CC[C@@H]12.O=C(O)C(F)(F)F.O=C(O)C(F)(F)F | > 30.2 µM | 30.2 µM | > 30.2 µM | 1.89 µM | 30.2 µM | 15.1 µM | 1.89 µM | 16.4 µM |  |  |  |  |  |  |
| C[C@]1(C(=O)NCCCNCCCCCCNCCCNC(=O)[C@@]2(C)CCC[C@]3(C)c4cc(O)ccc4CC[C@@H]23)CCC[C@]2(C)c3cc(O)ccc3CC[C@@H]12.O=C(O)C(F)(F)F.O=C(O)C(F)(F)F | > 32.9 µM | 32.9 µM | > 32.9 µM | 32.9 µM | > 32.9 µM | 32.9 µM | 32.9 µM | 28.6 µM |  |  |  |  |  |  |
| COC(=O)[C@@]1(C)CCC[C@]2(C)c3cc(OC(=O)CCCNCCCCCCCCCCNCCCNC(=O)Oc4ccc5c(c4)[C@@]4(C)CCC[C@](C)(C(=O)OC)[C@@H]4CC5)ccc3CC[C@@H]12.O=C(O)C(F)(F)F.O=C(O)C(F)(F)F | > 28 µM | > 28 µM | > 28 µM | 3.5 µM | > 28 µM | ≤ 0.22 µM | ≤ 0.22 µM | 1.3 µM |  |  |  |  |  |  |
| C[C@]1(C(=O)O)CCC[C@]2(C)c3cc(OC(=O)CCCNCCCCCCCCCCCCNCCCNC(=O)Oc4ccc5c(c4)[C@@]4(C)CCC[C@](C)(C(=O)O)[C@@H]4CC5)ccc3CC[C@@H]12.O=C(O)C(F)(F)F.O=C(O)C(F)(F)F | > 28 µM | > 28 µM | > 28 µM | 14 µM | > 28 µM | > 28 µM | 3.5 µM | > 28 µM |  |  |  |  |  |  |
| C[C@]1(C(=O)O)CCC[C@]2(C)c3cc(OC(=O)NCCCNCCCCCCCN)ccc3CC[C@@H]12.O=C(O)C(F)(F)F.O=C(O)C(F)(F)F | > 44.7 µM | > 44.7 µM | > 44.7 µM | > 44.7 µM | > 44.7 µM | > 44.7 µM | > 44.7 µM | > 44.7 µM |  |  |  |  |  |  |
| C[C@]1(C(=O)NCCCNCCCCCCCCNCCCNC(=O)[C@@]2(C)CCC[C@]3(C)c4cc(O)ccc4CC[C@@H]23)CCC[C@]2(C)c3cc(O)ccc3CC[C@@H]12.O=C(O)C(F)(F)F.O=C(O)C(F)(F)F | > 32 µM | 32 µM | > 32 µM | 8 µM | 32 µM | 32 µM | 32 µM | 18.1 µM |  |  |  |  |  |  |
| CCCCCNC(=O)[C@@]1(C)CCC[C@]2(C)c3cc(OC(=O)CCCNCCCCCCNCCCNC(=O)Oc4ccc5c(c4)[C@@]4(C)CCC[C@](C)(C(=O)NCCCCC)[C@@H]4CC5)ccc3CC[C@@H]12.O=C(O)C(F)(F)F.O=C(O)C(F)(F)F | > 26.7 µM | > 26.7 µM | > 26.7 µM | ≤ 0.21 µM | > 26.7 µM | 1.67 µM | 6.68 µM | > 26.7 µM |  |  |  |  |  |  |
